Experimental data: PubChem BioAssay (NCI)
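Each compound was tested at five concentrations against cells in 96-well plates for 48 hours. At the GI50, growth is halved. The concentration for full growth arrest is given as TGI.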

Columns and labels:
Assay in all cases: NCI tumour cell line growth inhibition, 48 h
OVCAR-4 ovarian = system: OVCAR-4 ovarian
SNB-75 CNS = system: SNB-75 CNS
SW-620 colon = system: SW-620 colon
OVCAR-8 ovarian = system: OVCAR-8 ovarian
HOP-62 NSCLC = system: HOP-62 NSCLC
M14 melanoma = system: M14 melanoma
DU-145 prostate = system: DU-145 prostate
SK-MEL-2 melanoma = system: SK-MEL-2 melanoma
SN12C renal = system: SN12C renal
PC-3 prostate = system: PC-3 prostate

O=C1c2c(c3c4ccccc4n(CCCCCCBr)c3c3[nH]c4ccccc4c23)C(=O)N1O
GI50 (OVCAR-4 ovarian): 3.45 µM
TGI (OVCAR-4 ovarian): 23.4 µM
GI50 (SNB-75 CNS): 3.14 µM
TGI (SNB-75 CNS): 16.5 µM
GI50 (SW-620 colon): 3.56 µM
TGI (SW-620 colon): 14.3 µM
GI50 (OVCAR-8 ovarian): 3.11 µM
TGI (OVCAR-8 ovarian): 10.3 µM
GI50 (HOP-62 NSCLC): 2.52 µM
TGI (HOP-62 NSCLC): 9.06 µM
GI50 (M14 melanoma): 2070 nM
TGI (M14 melanoma): 7.68 µM
GI50 (DU-145 prostate): 4.01 µM
TGI (DU-145 prostate): 15.2 µM
GI50 (SK-MEL-2 melanoma): 2.09 µM
TGI (SK-MEL-2 melanoma): 5.27 µM
GI50 (SN12C renal): 3.68 µM
TGI (SN12C renal): 12.8 µM

CC1OC(O[C@H]2C[C@@H](O)[C@]3(CO)[C@H]4[C@H](O)C[C@]5(C)[C@@H](C6=CC(=O)OC6)CC[C@]5(O)[C@@H]4CC[C@]3(O)C2)C(O)C(O)C1O (some centres undefined)
GI50 (OVCAR-4 ovarian): 17.3 µM
TGI (OVCAR-4 ovarian): 33.1 µM
GI50 (PC-3 prostate): 20.4 µM
TGI (PC-3 prostate): 41.4 µM
GI50 (SW-620 colon): 22.5 µM
TGI (SW-620 colon): 48.7 µM
GI50 (OVCAR-8 ovarian): 19.2 µM
TGI (OVCAR-8 ovarian): 34.8 µM
GI50 (HOP-62 NSCLC): 21.7 µM
TGI (HOP-62 NSCLC): 51.9 µM
GI50 (M14 melanoma): 27700 nM
TGI (M14 melanoma): 87.5 µM
GI50 (DU-145 prostate): 19.3 µM
TGI (DU-145 prostate): 34 µM
GI50 (SK-MEL-2 melanoma): 20.2 µM
TGI (SK-MEL-2 melanoma): 44.8 µM
GI50 (SN12C renal): 20.6 µM
TGI (SN12C renal): 40.6 µM

Cc1cc2c(cc1C)[n+](=O)c(C(=O)CC(=O)C(=O)Nc1c(C(C)C)cccc1C(C)C)c(C)n2[O-]
TGI (OVCAR-4 ovarian): > 100 µM
TGI (SNB-75 CNS): > 100 µM
TGI (SW-620 colon): > 100 µM
TGI (OVCAR-8 ovarian): > 100 µM
TGI (HOP-62 NSCLC): > 100 µM
TGI (M14 melanoma): > 100 µM
TGI (SK-MEL-2 melanoma): > 100 µM
TGI (SN12C renal): > 100 µM

Cc1ccc(S(=O)(=O)C(CC(=O)N2CCCC2)C(=O)c2ccccc2)cc1 (centres undefined)
TGI (OVCAR-4 ovarian): > 100 µM
TGI (SNB-75 CNS): > 100 µM
TGI (SW-620 colon): > 100 µM
TGI (OVCAR-8 ovarian): > 100 µM
TGI (HOP-62 NSCLC): > 100 µM
TGI (M14 melanoma): > 100 µM
TGI (SN12C renal): > 100 µM

CN1CCN(Cc2ccc(NC(=O)c3cncc(C#Cc4cnc(N)c5ccc(C#N)cc45)c3)cc2C(F)(F)F)CC1
GI50 (SNB-75 CNS): 0.123 µM
TGI (SNB-75 CNS): 0.876 µM
GI50 (PC-3 prostate): 0.357 µM
TGI (PC-3 prostate): 1.37 µM
GI50 (SW-620 colon): 0.059 µM
TGI (SW-620 colon): 1.45 µM
GI50 (OVCAR-8 ovarian): 0.141 µM
TGI (OVCAR-8 ovarian): 1.32 µM
GI50 (HOP-62 NSCLC): 0.0439 µM
TGI (HOP-62 NSCLC): 0.927 µM
GI50 (M14 melanoma): 15.1 nM
TGI (M14 melanoma): 0.258 µM
GI50 (DU-145 prostate): 0.0332 µM
TGI (DU-145 prostate): 1.47 µM
GI50 (SK-MEL-2 melanoma): 0.0217 µM
TGI (SK-MEL-2 melanoma): 0.353 µM
GI50 (SN12C renal): 0.0218 µM
TGI (SN12C renal): 0.611 µM

N#CC1(Cc2ccc(N)cc2)c2ccccc2C=CN1C(=O)c1ccccc1 (centres undefined)
TGI (SNB-75 CNS): > 100 µM
TGI (SW-620 colon): > 100 µM
TGI (OVCAR-8 ovarian): > 100 µM
TGI (HOP-62 NSCLC): > 100 µM
TGI (M14 melanoma): > 100 µM
TGI (SK-MEL-2 melanoma): > 100 µM
TGI (SN12C renal): > 100 µM

COC(=O)C(=O)C(C(=O)C=C(C)C)C(=O)C(=O)Nc1cc(C(F)(F)F)ccc1Cl (centres undefined)
TGI (OVCAR-4 ovarian): > 100 µM
TGI (SNB-75 CNS): > 100 µM
TGI (OVCAR-8 ovarian): > 100 µM
TGI (HOP-62 NSCLC): > 100 µM
TGI (M14 melanoma): > 100 µM
TGI (SK-MEL-2 melanoma): > 100 µM
TGI (SN12C renal): > 100 µM

COc1ccc(CNc2cc(OC)c(OC)c(OC)c2)cc1
TGI (OVCAR-4 ovarian): 85.1 µM
TGI (SNB-75 CNS): 97.1 µM
TGI (SW-620 colon): > 100 µM
TGI (OVCAR-8 ovarian): > 100 µM
TGI (HOP-62 NSCLC): > 71.5 µM
TGI (M14 melanoma): > 100 µM
TGI (SK-MEL-2 melanoma): > 100 µM
TGI (SN12C renal): > 100 µM

O=C(N/N=C/c1ccccc1O)c1cccc([N+](=O)[O-])c1
TGI (OVCAR-4 ovarian): > 100 µM
TGI (SW-620 colon): > 100 µM
TGI (OVCAR-8 ovarian): > 100 µM
TGI (M14 melanoma): 43.2 µM
TGI (SK-MEL-2 melanoma): > 100 µM
TGI (SN12C renal): > 100 µM

O=C1C=CC(=Nc2ccc3c(c2)C(Br)c2ccccc2-3)O1 (centres undefined)
TGI (SNB-75 CNS): > 100 µM
TGI (SW-620 colon): > 100 µM
TGI (OVCAR-8 ovarian): > 100 µM
TGI (HOP-62 NSCLC): > 100 µM
TGI (M14 melanoma): > 100 µM
TGI (SN12C renal): 49.9 µM

COC(=O)C[C@H]1CCC2(OCCO2)[C@]1(C)C(=O)OC
TGI (OVCAR-4 ovarian): > 100 µM
TGI (SNB-75 CNS): > 100 µM
TGI (SW-620 colon): > 100 µM
TGI (OVCAR-8 ovarian): > 100 µM
TGI (HOP-62 NSCLC): > 100 µM
TGI (M14 melanoma): > 100 µM
TGI (SK-MEL-2 melanoma): > 100 µM
TGI (SN12C renal): > 100 µM

N#CC(C(=N/O)/C(=N/O)C(C#N)c1ccc(Cl)cc1)c1ccc(Cl)cc1 (centres undefined)
TGI (OVCAR-4 ovarian): > 100 µM
TGI (SNB-75 CNS): > 100 µM
TGI (SW-620 colon): > 100 µM
TGI (OVCAR-8 ovarian): > 100 µM
TGI (HOP-62 NSCLC): > 100 µM
TGI (M14 melanoma): > 100 µM
TGI (SK-MEL-2 melanoma): > 100 µM
TGI (SN12C renal): > 100 µM

CCOC(=O)NC(=O)c1cn(C2OC(COC(=O)CCCCCCCCC(=O)OCC3OC(n4cc(C(=O)NC(=O)OCC)c(=O)[nH]c4=O)C(O)C3O)C(O)C2O)c(=O)[nH]c1=O (centres undefined)
TGI (OVCAR-4 ovarian): > 100 µM
TGI (SNB-75 CNS): > 100 µM
TGI (SW-620 colon): > 100 µM
TGI (OVCAR-8 ovarian): > 100 µM
TGI (HOP-62 NSCLC): > 100 µM
TGI (M14 melanoma): > 100 µM
TGI (SK-MEL-2 melanoma): > 100 µM
TGI (SN12C renal): > 100 µM

CCN(CC)c1c(C(=O)/C=C/c2ccccc2)c(-c2ccccc2)nn(C)c1=O
TGI (OVCAR-4 ovarian): > 100 µM
TGI (OVCAR-8 ovarian): > 100 µM
TGI (HOP-62 NSCLC): > 100 µM
TGI (SN12C renal): > 100 µM

C=C(CN1CCc2ccccc2C1)c1ccc(C(=O)Nc2cnccn2)cc1
GI50 (OVCAR-4 ovarian): 99.4 µM
TGI (OVCAR-4 ovarian): > 100 µM
GI50 (SNB-75 CNS): 16.7 µM
TGI (SNB-75 CNS): 61.2 µM
GI50 (PC-3 prostate): 1.86 µM
TGI (PC-3 prostate): > 100 µM
GI50 (SW-620 colon): 42.3 µM
TGI (SW-620 colon): > 100 µM
GI50 (OVCAR-8 ovarian): 30.2 µM
TGI (OVCAR-8 ovarian): > 100 µM
GI50 (HOP-62 NSCLC): 27.1 µM
TGI (HOP-62 NSCLC): > 100 µM
GI50 (DU-145 prostate): 30.1 µM
TGI (DU-145 prostate): 89.7 µM
GI50 (SK-MEL-2 melanoma): 46.6 µM
TGI (SK-MEL-2 melanoma): > 100 µM
GI50 (SN12C renal): 50.4 µM
TGI (SN12C renal): > 100 µM

CCCCCCCCCCCC(=O)CC(=O)c1c(O)cccc1O
TGI (OVCAR-4 ovarian): 34.1 µM
TGI (SNB-75 CNS): 36.5 µM
TGI (SW-620 colon): 31 µM
TGI (OVCAR-8 ovarian): 30.6 µM
TGI (HOP-62 NSCLC): 48.9 µM
TGI (M14 melanoma): 32.9 µM
TGI (SK-MEL-2 melanoma): 31 µM
TGI (SN12C renal): 33.6 µM

CCNCCNc1cc(-c2ccc(C(=O)OC)cc2)c(C#N)c2nc3ccccc3n12
GI50 (SNB-75 CNS): 1.53 µM
TGI (SNB-75 CNS): 3.17 µM
GI50 (PC-3 prostate): 5.28 µM
TGI (PC-3 prostate): > 100 µM
GI50 (SW-620 colon): 0.488 µM
TGI (SW-620 colon): 2.67 µM
GI50 (OVCAR-8 ovarian): 2.13 µM
TGI (OVCAR-8 ovarian): 5.32 µM
GI50 (HOP-62 NSCLC): 2.48 µM
TGI (HOP-62 NSCLC): 9.46 µM
GI50 (M14 melanoma): 1580 nM
TGI (M14 melanoma): 3.23 µM
GI50 (DU-145 prostate): 2.65 µM
TGI (DU-145 prostate): > 100 µM
GI50 (SK-MEL-2 melanoma): 5.15 µM
TGI (SK-MEL-2 melanoma): 31.5 µM
GI50 (SN12C renal): 2.68 µM
TGI (SN12C renal): 8.33 µM

COc1ccc2cc1Oc1ccc(cc1)CC1c3cc(c(OC)cc3CCN1C)Oc1c3c(cc4c1C(C2)N(C)CC4)OCO3 (centres undefined)
TGI (OVCAR-4 ovarian): 12.7 µM
TGI (SNB-75 CNS): 15.3 µM
TGI (SW-620 colon): 25.8 µM
TGI (OVCAR-8 ovarian): 21.1 µM
TGI (HOP-62 NSCLC): 29.8 µM
TGI (M14 melanoma): 3.52 µM
TGI (SK-MEL-2 melanoma): 15.8 µM
TGI (SN12C renal): 23.7 µM

CSc1ccc(C2=NN(C(C)=O)C(c3cc(C)cs3)C2)cc1 (centres undefined)
GI50 (OVCAR-4 ovarian): 18 µM
TGI (OVCAR-4 ovarian): > 100 µM
GI50 (SNB-75 CNS): 22.1 µM
TGI (SNB-75 CNS): > 100 µM
GI50 (PC-3 prostate): 20.2 µM
TGI (PC-3 prostate): 95.6 µM
GI50 (SW-620 colon): 38.2 µM
TGI (SW-620 colon): > 100 µM
GI50 (OVCAR-8 ovarian): 32 µM
TGI (OVCAR-8 ovarian): > 100 µM
GI50 (HOP-62 NSCLC): 37.3 µM
TGI (HOP-62 NSCLC): > 100 µM
GI50 (DU-145 prostate): 34.6 µM
TGI (DU-145 prostate): > 100 µM
GI50 (SK-MEL-2 melanoma): 39 µM
TGI (SK-MEL-2 melanoma): > 100 µM
GI50 (SN12C renal): 26.2 µM
TGI (SN12C renal): > 100 µM

CCCCN(CCCC)C(=O)C(=O)C(C#N)c1ccc(C)cc1 (centres undefined)
TGI (OVCAR-4 ovarian): > 100 µM
TGI (SNB-75 CNS): > 100 µM
TGI (SW-620 colon): > 100 µM
TGI (OVCAR-8 ovarian): > 100 µM
TGI (HOP-62 NSCLC): > 100 µM
TGI (M14 melanoma): > 100 µM
TGI (SK-MEL-2 melanoma): > 100 µM
TGI (SN12C renal): > 100 µM
